# Experimental data: patent publication US20130053357A1, “SKIN IRRITATION SUPPRESSANT AND TRANSDERMAL PREPARATION” (HISAMITSU PHARMACEUTICAL CO., INC., priority 2010, published 2013)
# Read-outs that look alike come from different tables or passages of the source.
# Assays:
# [1] = test system: human three-dimensional culture epidermal model (LabCyte EPI-MODEL); test: Production of skin irritation mediators induced by PMA in human three-dimensional epidermal culture model (Experiment 1); type: cell-based; settings: for activity at 1 %: Homo sapiens
# Text: Changes in production amounts of skin irritation mediators by test substances were examined when cutaneous irritants were caused to act on a human three-dimensional culture epidermal model.
# (§1) A human three-dimensional epidermal culture model obtained by multilayer-culturing a human normal epidermal cell (LabCyte EPI-MODEL, manufactured by Japan Tissue Engineering Co., Ltd.) was used. LabCyte is a cultured skin cultured in a transwell. For the experiment, LabCyte was used with the transwell.
# As test substances, there were used cholesterol (manufactured by Wako Pure Chemical Industries, Ltd.), β-sitosterol (manufactured by TAMA BIOCHEMICAL CO., LTD.), α-spinasterol (manufactured by ChromaDex, Inc.), ergosterol (manufactured by Wako Pure Chemical Industries, Ltd.), campesterol (manufactured by TAMA BIOCHEMICAL CO., LTD.), glycyrrhizin (manufactured by Wako Pure Chemical Industries, Ltd.), glycyrrhetinic acid (manufactured by Wako Pure Chemical Industries, Ltd.), ginsenoside (manufactured by Wako Pure Chemical Industries, Ltd.), squalene (manufactured by Wako Pure Chemical Industries, Ltd.), squalane (manufactured by Tokyo Chemical Industry Co., Ltd.) and lanosterol (manufactured by ChromaDex, Inc.), which are candidates of a skin irritation suppressant.
# As skin irritants, Phorbol 12-Myristate 13-Acetate (PMA, manufactured by Wako Pure Chemical Industries, Ltd.) was used. In addition, as vehicle, olive oil (manufactured by Wako Pure Chemical Industries, Ltd.) was used.
# Experiments were conducted by the following group composition. • PMA Only Group: A group with addition of only 0.00001 mol of PMA dispersed in a vehicle, as a test solution. • Test Substance Group: A group with addition of 0.00001 mol of PMA and the test substance which were dispersed in a vehicle, as a test solution.
# (§2) The experiment was conducted as below. First, LabCyte was put into a 24-well assay plate. Then, 1 ml of assay medium (Japan Tissue Engineering Co., Ltd.) was added so that it was brought into contact with a bottom surface of the cultured skin in each well of the 24-well assay plate, and was pre-cultured in an incubator with 5% of carbon dioxide concentration at 37° C. for 1 hour.
# Next, a cell survival rate was measured by the MTT method after causing the test solutions of each group to act. Specifically, 50 μL of the test solution of each group was added to the surface of the LabCyte after preculture, was cultured in the incubator with 5% of carbon dioxide concentration at 37° C. for 48 hours, then was transferred to the assay medium comprising 0.5 mg/ml of MTT reagent, and was cultured in the incubator with 5% of carbon oxide level at 37° C. for 3 hours. Then, LabCyte was immersed in 0.3 ml of an isopropanol solution, and the produced blue-purple formazan was extracted for 2 hours. After extraction, an absorbance at 570 nm was measured by a 96 microplate reader. The cell survival rate was calculated as below.
# Cell survival rate (%)=(absorbance of Test Substance Group)/(absorbance of PMA Only Group)×100
# Subsequently, a production amount of the skin irritation mediator at a test substance concentration with 80% or more of cell survival rate was measured. As skin irritation mediators, PGE2, IL-1α, IL-6, IL-8 were measured.
# (§3) The test solutions of each group were added to the cells, the culture solutions incubated for 48 hours were collected, and a production amount of each skin irritation mediator was measured. The skin irritation mediator was measured by using a commercially available ELISA kit (manufactured by R&D Systems, Inc.). A relative production amount of the skin irritation mediator in each test substance was calculated as below, when the production amount of the skin irritation mediator in the PMA Only Group was set to 100.
# Relative production amount=(production amount of the mediator in Test Substance Group)/(production amount of the mediator in PMA Only Group)×100
# [2] = test system: croton oil-induced mouse ear swelling; test: Suppression of croton oil-induced mouse ear swelling reaction (Experiment 3); type: in vivo
# Text: <Suppression of Croton Oil-Induced Mouse Ear Swelling Reaction by the Test Substances>
# Suppression of mouse ear swelling was examined through the use of croton oil (Wako Pure Chemical Industries, Ltd.) as a swelling inducer. A 7-week-old ddY female mouse (SPF) was subjected to an experiment. As test substances, cholesterol, glycyrrhizin, glycyrrhetinic acid, squalene, ergosterol, squalane and lanosterol were used. As a vehicle, acetone (Wako Pure Chemical Industries, Ltd.) was used.
# Experiments were conducted by the following group composition. • Positive Control Group: A group which received only the vehicle as a primary test solution, and one hour after, received a 2% croton oil solution as a secondary test solution. • Test Substance Group: A group in which only the vehicle was administered as a primary test solution, and one hour after, a 2% croton oil solution including 1% by mass of test substance was administered as a secondary test solution.
# An inhibition ratio of ear swelling was calculated as below. In this test, a […] inflammation model is used to examine immediate swelling reactions. In accordance with the group composition, 25 μL of the primary test solution was uniformly coated on back sides of both ears in an etherize mouse, and one hour after, 25 μL of the secondary test solution was uniformly coated in accordance with the group composition. Prior to coating of the secondary test solution, a thickness of auricle was measured by DIAL […] GAUGE (OZAKI MFG CO., LTD.). Furthermore, the secondary test solution was administered, and 6 hours after, the auricular thickness was measured in the same way as mentioned above, and an increased amount of the auricular thickness was set by deducting the thickness measured prior to administration of the secondary test solution. The inhibition ratio of ear swelling was calculated as below.
# Inhibition ratio of ear swelling (%)=(increased amount of auricular thickness in Test Substance Group−increased amount of auricular thickness in Negative Control Group)/(increased amount of auricular thickness in Positive Control Group−increased amount of auricular thickness in Negative Control Group)×100
# [3] = test system: human three-dimensional culture epidermal model (LabCyte EPI-MODEL); test: Suppression by cholesterol of skin irritation mediator production induced by drugs in a human epidermal cell (Experiment 2); type: cell-based; settings: Drug Plus Cholesterol Group: drug 1 × 10^−3 M plus 1% by mass of cholesterol
# Experimental: as §1, §2, §3
# Cholesterol was used as a test substance. The drugs shown in Table 2 were used as the cutaneous irritants.
# Tests were conducted by the following group composition. • Drug Only Group: A group with addition of only the drug dispersed in a vehicle, as a test solution. Concentrations of the drugs are shown in Table 2. • Drug Plus Cholesterol Group: A group with addition of the drug and 1% by mass of cholesterol which were dispersed in a vehicle, as a test solution.
# The experiment was conducted while other conditions were set in the same manner as in Experiment 1.
# [4] = test substance 0.1 mass % with PMA in olive oil, 48 hours
# [5] = test substance 1 mass % with PMA in olive oil, 48 hours
compound,measurement,setting,value
"CC(C)=CCC[C@@H](C)[C@H]1CC[C@@]2(C)C3=C(CC[C@]12C)[C@@]1(C)CC[C@H](O)C(C)(C)[C@@H]1CC3 [Lanosterol, lanosterol]",activity at 1 %,"[1]; test substance 1 mass % with PMA in olive oil, 48 hours, read-out: Relative Production Amount of Skin Irritation Mediator when Production Amount in PMA Only Group is Set to 100: IL-1α",76%
same,activity at 1 %,"[1]; test substance 1 mass % with PMA in olive oil, 48 hours, read-out: Relative Production Amount of Skin Irritation Mediator when Production Amount in PMA Only Group is Set to 100: IL-6",90%
same,activity at 1 %,"[1]; test substance 1 mass % with PMA in olive oil, 48 hours, read-out: Relative Production Amount of Skin Irritation Mediator when Production Amount in PMA Only Group is Set to 100: IL-8",73%
same,activity at 1 %,"[1]; test substance 1 mass % with PMA in olive oil, 48 hours, read-out: Relative Production Amount of Skin Irritation Mediator when Production Amount in PMA Only Group is Set to 100: PGE2",47%
same,Effect on skin irritation mediator production by PMA (in words),[1]; summary of Table 1,exhibited effects of suppressing the skin irritation mediator production by PMA
same,Inhibition Ratio Of Ear Swelling,"[2]; ddY female mouse, 1% by mass of test substance in 2% croton oil solution, 25 μL on ears, auricular thickness 6 hours after",65.9%
same,Effect on croton oil-induced mouse ear swelling reaction (in words),[2]; summary of Table 3,suppress croton oil-induced mouse ear swelling reaction
Cc1nc2n(c(=O)c1CCN1CCC(c3noc4cc(F)ccc34)CC1)CCCC2 [Risperidone],Relative Production Amount of Skin Irritation Mediator when Production Amount in Drug Only Group is Set to 100: IL-1α,[3],14
same,Relative Production Amount of Skin Irritation Mediator when Production Amount in Drug Only Group is Set to 100: IL-6,[3],77
same,Relative Production Amount of Skin Irritation Mediator when Production Amount in Drug Only Group is Set to 100: IL-8,[3],38
same,Relative Production Amount of Skin Irritation Mediator when Production Amount in Drug Only Group is Set to 100: PGE2,[3],80
ginsenoside,Effect on skin irritation mediator production by PMA (in words),[1]; summary of Table 1,exhibited effects of suppressing the skin irritation mediator production by PMA
same,Relative Production Amount of Skin Irritation Mediator when Production Amount in PMA Only Group is Set to 100: IL-1α,[1]; [4],77
same,Relative Production Amount of Skin Irritation Mediator when Production Amount in PMA Only Group is Set to 100: IL-6,[1]; [4],70
same,Relative Production Amount of Skin Irritation Mediator when Production Amount in PMA Only Group is Set to 100: IL-8,[1]; [4],90
same,Relative Production Amount of Skin Irritation Mediator when Production Amount in PMA Only Group is Set to 100: PGE2,[1]; [4],121
CC[C@H](CC[C@@H](C)[C@H]1CC[C@H]2[C@@H]3CC=C4C[C@@H](O)CC[C@]4(C)[C@H]3CC[C@]12C)C(C)C [β-sitosterol],Effect on skin irritation mediator production by PMA (in words),[1]; summary of Table 1,exhibited effects of suppressing the skin irritation mediator production by PMA
same,Relative Production Amount of Skin Irritation Mediator when Production Amount in PMA Only Group is Set to 100: IL-1α,[1]; [5],101
same,Relative Production Amount of Skin Irritation Mediator when Production Amount in PMA Only Group is Set to 100: IL-6,[1]; [5],100
same,Relative Production Amount of Skin Irritation Mediator when Production Amount in PMA Only Group is Set to 100: IL-8,[1]; [5],34
same,Relative Production Amount of Skin Irritation Mediator when Production Amount in PMA Only Group is Set to 100: PGE2,[1]; [5],44
"CC(C)[C@H](C)CC[C@@H](C)[C@H]1CC[C@H]2[C@@H]3CC=C4C[C@@H](O)CC[C@]4(C)[C@H]3CC[C@]12C [Campesterol, campesterol]",Effect on skin irritation mediator production by PMA (in words),[1],exhibited effects of suppressing the skin irritation mediator production by PMA
same,activity at 1 %,"[1]; 48 h, read-out: Relative Production Amount of Skin Irritation Mediator when Production Amount in PMA Only Group is Set to 100: IL-1α",53%
same,activity at 1 %,"[1]; 48 h, read-out: Relative Production Amount of Skin Irritation Mediator when Production Amount in PMA Only Group is Set to 100: IL-6",100%
same,activity at 1 %,"[1]; 48 h, read-out: Relative Production Amount of Skin Irritation Mediator when Production Amount in PMA Only Group is Set to 100: IL-8",106%
same,activity at 1 %,"[1]; 48 h, read-out: Relative Production Amount of Skin Irritation Mediator when Production Amount in PMA Only Group is Set to 100: PGE2",38%
